Key:
AKT1-NL [1] = target: T1, AKT1-NL (Homo sapiens, UniProt P31749); experiment: Bioluminescent imaging of AKT1-NL localization in HEK293T cells; format: cell-based; details: 2 h treatment, compared to DMSO
T1 construct: full-length versions of AKT1, AKT2, and AKT3, were separately subcloned into pNLF1-N or pNLF1-C vectors; expressed in transfected cells; host or cells: HEK293T
Protocol: (§1) We also performed bioluminescent imaging on AKT1-NL, AKT2-NL, and AKT3-NL transfected into HEK293T cells treated individually with all AKT inhibitors for 2 h (Figure S1F). […] After incubation, 2 μL of NanoGlo substrate was added to each well and imaged using the GloMax Galaxy Bioluminescence Imager utilizing a 40× objective (Nikon CFI Plan Fluor- Material Number MRH01401) and exposure times ranging from 32 to 100 s. […] Images were processed in Fiji.

AKT2-NL = target: T2, AKT2-NL (Homo sapiens, UniProt P31751); experiment: Bioluminescent imaging of AKT2-NL localization in HEK293T cells; format: cell-based; details: 2 h treatment, compared to DMSO
T2 construct: full-length versions of AKT1, AKT2, and AKT3, were separately subcloned into pNLF1-N or pNLF1-C vectors; expressed in transfected cells; host or cells: HEK293T
T2 sequence (P31751 whole entry): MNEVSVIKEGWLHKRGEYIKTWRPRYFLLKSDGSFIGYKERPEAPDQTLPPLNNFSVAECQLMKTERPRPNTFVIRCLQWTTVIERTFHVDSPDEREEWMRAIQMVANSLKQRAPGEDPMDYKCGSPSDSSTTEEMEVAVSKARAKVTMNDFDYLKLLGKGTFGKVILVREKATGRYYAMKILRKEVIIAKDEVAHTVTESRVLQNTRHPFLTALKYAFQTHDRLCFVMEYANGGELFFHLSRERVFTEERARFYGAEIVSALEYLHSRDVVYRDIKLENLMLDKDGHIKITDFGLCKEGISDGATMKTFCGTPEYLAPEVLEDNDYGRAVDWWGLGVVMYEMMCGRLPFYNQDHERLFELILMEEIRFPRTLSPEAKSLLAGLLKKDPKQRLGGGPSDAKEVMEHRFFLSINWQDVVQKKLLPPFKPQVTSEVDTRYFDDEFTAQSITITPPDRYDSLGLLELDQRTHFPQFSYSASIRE
Protocol: as §1

AKT3-NL [2] = target: T3, AKT3-NL (Homo sapiens, UniProt Q9Y243); experiment: Bioluminescent imaging of AKT3-NL localization in HEK293T cells; format: cell-based; design: full-length versions of AKT1, AKT2, and AKT3, were separately subcloned into pNLF1-N or pNLF1-C vectors; expressed in transfected cells; host or cells: HEK293T; details: 2 h treatment, compared to DMSO
T3 sequence (Q9Y243 whole entry): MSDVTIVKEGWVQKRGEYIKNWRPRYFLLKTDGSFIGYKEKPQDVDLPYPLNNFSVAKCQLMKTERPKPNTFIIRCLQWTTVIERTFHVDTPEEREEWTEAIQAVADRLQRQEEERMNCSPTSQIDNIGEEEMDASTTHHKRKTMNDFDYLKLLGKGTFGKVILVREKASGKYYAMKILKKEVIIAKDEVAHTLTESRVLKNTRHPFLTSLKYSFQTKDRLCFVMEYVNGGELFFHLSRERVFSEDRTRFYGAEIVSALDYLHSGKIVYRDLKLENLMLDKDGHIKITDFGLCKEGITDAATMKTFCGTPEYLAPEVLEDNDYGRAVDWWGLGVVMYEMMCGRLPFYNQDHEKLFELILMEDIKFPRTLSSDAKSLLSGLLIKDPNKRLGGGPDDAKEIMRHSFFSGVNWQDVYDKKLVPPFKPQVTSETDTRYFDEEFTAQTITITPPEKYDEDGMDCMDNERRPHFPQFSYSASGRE
Protocol: as §1

AKT1-NL [3] = target: T1, AKT1-NL; experiment: Live-cell steady-state NanoBRET target engagement assay, AKT1-NL; format: binding
Protocol: (§2) In this live-cell assay, bioluminescence resonance energy transfer (BRET) produced by the interaction of a transfected NanoLuciferase (NL)-tagged protein of interest and a protein-bound Bodipy-containing tracer molecule is dose-dependently competed out with a drug.
(§3) This solution was aliquoted into white adherent 96-well plates at a volume of 100 μL/well and incubated for 24 h at 37 °C and 5% CO2. […] Following all inhibitor and tracer additions, cells were incubated at 37 °C and 5% CO2 for 2 h. 50 μL of a 3× solution of Opti-MEM containing a NanoGlo substrate and NanoLuciferase inhibitor provided in the NanoBRET kit were added to each well.
(§4) Calculated K i values were calculated using the following formula Ki=IC50,tracer/(1+[tracer]/EC50,tracer)

Myr-AKT1-NL = target: T4, Myr-AKT1-NL (Homo sapiens, UniProt P31749); experiment: NanoBRET target engagement assay, Myr-AKT1-NL; format: binding
T4 construct: host or cells: HEK293T
T4 sequence (P31749 whole entry): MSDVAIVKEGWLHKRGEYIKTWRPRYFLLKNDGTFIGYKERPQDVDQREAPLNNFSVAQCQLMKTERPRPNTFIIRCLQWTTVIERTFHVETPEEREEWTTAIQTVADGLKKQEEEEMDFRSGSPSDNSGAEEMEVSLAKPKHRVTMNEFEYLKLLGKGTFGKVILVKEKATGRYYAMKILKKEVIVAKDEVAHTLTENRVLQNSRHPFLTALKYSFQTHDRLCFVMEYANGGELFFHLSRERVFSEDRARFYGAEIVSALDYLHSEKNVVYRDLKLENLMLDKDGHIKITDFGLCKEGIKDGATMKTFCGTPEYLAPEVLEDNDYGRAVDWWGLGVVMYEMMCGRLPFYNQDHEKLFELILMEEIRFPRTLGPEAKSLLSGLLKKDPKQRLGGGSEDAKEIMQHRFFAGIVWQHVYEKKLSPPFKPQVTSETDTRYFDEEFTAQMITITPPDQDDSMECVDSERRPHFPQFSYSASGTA
From the text: It was puzzling to understand why ATP-competitive inhibitors bound more tightly to some pathological mutants. […] To achieve an active AKT population characterized by increased phosphorylation and membrane association, we created N-terminally myristoylated AKT1–3-NL constructs (Figure A). AKT myristoylation is commonly used to keep AKT membrane-associated and available for phosphorylation by PDK1 and mTORC2. , We decided to use myristoylation instead of treatment with a PI3K-AKT stimulating hormone such as IGF1 because of transient time-dependent effects on phosphorylation that complicates the reproducibility of our NanoBRET assay. , Bioluminescent imaging of Myr-AKT1-NL, Myr-AKT2-NL, and Myr-AKT3-NL constructs confirmed that each isoform was associated at the cell membrane (Figure S4A).
Statistics were performed in Origin 2023.

PDK1-NL = target: T5, PDK1-NL (Homo sapiens, UniProt O15530); experiment: NanoBRET competition assay using PDK1-NL; format: binding; details: ± SEM, n = 3 biological replicates; read-out: PDK1-NL calculated Ki
T5 sequence (O15530 1-556): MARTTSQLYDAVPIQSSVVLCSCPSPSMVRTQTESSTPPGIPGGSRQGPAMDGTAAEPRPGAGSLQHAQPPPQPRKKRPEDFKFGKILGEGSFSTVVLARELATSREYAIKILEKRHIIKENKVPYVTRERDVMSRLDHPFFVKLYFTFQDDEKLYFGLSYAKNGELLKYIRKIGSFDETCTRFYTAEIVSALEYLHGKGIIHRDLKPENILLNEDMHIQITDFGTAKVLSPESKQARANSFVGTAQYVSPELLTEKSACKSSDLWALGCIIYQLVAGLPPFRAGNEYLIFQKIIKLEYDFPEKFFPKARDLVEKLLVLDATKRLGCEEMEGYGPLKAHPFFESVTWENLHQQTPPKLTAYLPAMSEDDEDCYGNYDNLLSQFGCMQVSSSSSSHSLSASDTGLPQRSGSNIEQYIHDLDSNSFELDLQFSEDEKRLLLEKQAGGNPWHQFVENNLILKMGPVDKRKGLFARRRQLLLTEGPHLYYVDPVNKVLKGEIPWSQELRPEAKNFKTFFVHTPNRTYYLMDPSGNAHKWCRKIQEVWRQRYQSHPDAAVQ
Protocol: as §3, §4

AKT3-E17K-NL = target: T6, AKT3-E17K-NL (Homo sapiens, UniProt Q9Y243, E17K); experiment: NanoBRET competition assay, AKT3-E17K-NL; format: binding
T6 construct: full-length versions of AKT1, AKT2, and AKT3, were separately subcloned into pNLF1-N or pNLF1-C vectors; expressed in transfected cells
T6 sequence (Q9Y243 whole entry E17K): as the sequence (Q9Y243 whole entry) above, with E17K counted along it
Protocol: We next quantified the binding of ATP-competitive and allosteric inhibitors to these pathogenic mutants.
For coexpression experiments with Myr-AKT1-NL and PDK1, a DNA ratio of 9:0.5:0.5, μg/mL carrier DNA/Myr-AKT1-NL: PDK1 was used. This solution was aliquoted into white adherent 96-well plates at a volume of 100 μL/well and incubated for 24 h at 37 °C and 5% CO2. […] Following all inhibitor and tracer additions, cells were incubated at 37 °C and 5% CO2 for 2 h. 50 μL of a 3× solution of Opti-MEM containing a NanoGlo substrate and NanoLuciferase inhibitor provided in the NanoBRET kit were added to each well.
as §4

MDA-MB-231 cells = experiment: Resazurin cell viability assay, MDA-MB-231; format: cell-based; details: Homo sapiens, MDA-MB-231, 120 h, 5 days, ± SEM, n = 3
MDA-MB-468 cells = experiment: Resazurin cell viability assay, MDA-MB-468; format: cell-based; details: Homo sapiens, MDA-MB-468, 120 h, 5 days, ± SEM, n = 3
AKT3-NL [4] = target: T3, AKT3-NL; experiment: Live-cell steady-state NanoBRET target engagement assay, AKT3-NL
Protocol: as §2, §3, §4

[5] = vs absence of BX-795, 0.2% DMSO

T1 sequence (P31749 whole entry): as the sequence (P31749 whole entry) above

Compound: O=c1[nH]c2ccccc2n1C1CCN(Cc2ccc(-c3nc4cc5[nH]cnc5cc4nc3-c3ccccc3)cc2)CC1 [inhibitor VIII]
- AKT1-NL localization change (AKT1-NL [1]): did not induce AKT localization changes
- AKT2-NL localization change (AKT2-NL): did not induce AKT localization changes
- AKT3-NL localization change (AKT3-NL [2]): did not induce AKT localization changes

Compound: O=C(NCCCNc1nc(Nc2cccc(NC(=O)N3CCCC3)c2)ncc1I)c1cccs1 [BX-795]
- Concentration at which some binding to AKT1-NL was observed (AKT1-NL [3]; dose-response curve): higher than 1 μM
- Concentration at which some binding to Myr-AKT1-NL was observed (Myr-AKT1-NL; dose-response curve): higher than 1 μM
- Ki (PDK1-NL): 5.85 ± 0.42 nM

Compound: NC1(c2ccc(-c3nc4ccn5c(=O)[nH]nc5c4cc3-c3ccccc3)cc2)CCC1 [MK-2206]
- Binding to AKT3-E17K-NL (AKT3-E17K-NL): did not bind
- AKT1-NL localization change (AKT1-NL [1]): did not induce AKT localization changes
- AKT2-NL localization change (AKT2-NL): did not induce AKT localization changes
- AKT3-NL localization change (AKT3-NL [2]): did not induce AKT localization changes

Compound: Cc1n[nH]c2ccc(-c3cncc(OCC(N)Cc4c[nH]c5ccccc45)c3)cc12 (stereo not shown) [A-443654]
- Ki (AKT1-NL [3]): 32.7 ± 14.1 nM
- Binding to AKT1-NL in the presence of 1 μM BX-795 (AKT1-NL [3]; [5]): unaffected
- IC50 (MDA-MB-231 cells): 330 ± 10 nM
- Binding to Myr-AKT1-NL in the presence of 1 μM BX-795 (Myr-AKT1-NL; [5]): bound more weakly
- IC50 (MDA-MB-468 cells): 20 ± 1 nM
- AKT1-NL localization change (AKT1-NL [1]): induced movement of all isoforms to the cell membrane and nucleus
- Ki (AKT3-NL [4]): 16.6 ± 5.5 nM
- AKT3-NL localization change (AKT3-NL [2]): induced movement of all isoforms to the cell membrane and nucleus

Compound: CC(C)NC[C@@H](C(=O)N1CCN(c2ncnc3c2[C@H](C)C[C@H]3O)CC1)c1ccc(Cl)cc1 [ipatasertib]
- AKT1-NL localization change (AKT1-NL [1]): induced the movement of some AKT to the cell membrane

Source: paper PMC12281477, “Live-Cell NanoBRET Assay to Measure AKT Inhibitor Binding to Conformational States of AKT” (ACS Chemical Biology, 2025)
